# Patent publication US8334261B2, “Osteopenia animal model” (Oriental Yeast Co., Ltd., priority 2006, dated 2012)
# B1: Soluble RANKL: Soluble RANKL (produced by Peprotech) (protein, UniProt O14788 69-317, looked up)
# extracellular domain: YFRAQMDPNRISEDGTHCIYRILRLHENADFQDTTLESQDTKLIPDSCRRIKQAFQGAVQKELQHIVGSQHIRAEKAMVDGSWLDLAKRSKLEAQPFAHLTINATDIPSGSHKVSLSSWYHDRGWAKISNMTFSNGKLIVNQDGFYYLYANICFRHHETSGDLATEYLQLMVYVTKTSIKIPSSHTLMKGGSTKYWSGNSEFHFYSINVGGFFKLRSGEEISIEVSNPSLLDPDQDATYFGAFKVRDID
# modifications: extracellular domain
# Columns and labels:
# [1] = system: GST-RANKL-administered 7-week-old female C57BL/6N mice; experiment: Evaluation of RANKL-signal-inhibiting compound (LFM-A13) in osteopenia mouse models; assay type: in vivo
# Description: GST or GST-RANKL (20 μg) was administered 3 times to 7-week-old female C57BL/6N mice every 24 hours. LFM-A13 (20 mg/kg body weigh) or physiological saline was administered thereto 1 hour before GST-RANKL administration. Measurement of the serum Ca concentration and bone morphology measurement was carried out 1.5 hours after the 3rd GST-RANKL administration. In addition, 3D image analysis was carried out with micro CT.
# [2] = system: GST-RANKL-administered 7-week-old female C57BL/6 mice; experiment: Comparison of a plurality of bisphosphonates in GST-RANKL mice; assay type: in vivo, mouse; settings: for dose at which the effects were exhibited: s.c. from the day before GST-RANKL
# Description: GST-RANKL was intraperitoneally administered 3 times at 1 mg/kg every 24 hours. The femur, tibia, and serum were collected from each mouse 1.5 hours after the 3rd GST-RANKL administration. Measurement of TRAP-5b, calcium (Ca), and alkaline phosphatase (ALP) in the serum was carried out. Each femur was subjected to bone density measurement with pQCT and image analysis with micro CT.
# [3] = system: GST-RANKL-administered, ovariectomized 7-week-old female C57BL/6N mice; experiment: Drug evaluation with a selective estrogen receptor modulator (raloxifene) in GST-RANKL/OVX mice; assay type: in vivo, mouse
# Excerpt: In addition, PBS (i.p.) and ultrapure water (p.o.) were used as control substances for comparison with GST-RANKL and raloxifene, respectively, upon administration.
# The serum collected from each mouse was subjected to measurement of serum bone resorption markers (Ca and TRAP-5b) and an osteogenesis marker (ALP). Each femur was subjected to measurement of the bone density, the bone mineral content, and the cortical bone thickness with pQCT at points 0.6, 0.8, 1.0 mm from the distal growth plate on the proximal side. In addition, image analysis was carried out with micro CT.
# [4] = system: GST-RANKL-administered 7-week-old female C57BL/6N mice; experiment: Evaluation of an osteoporosis therapeutic agent (risedronate) with GST-RANKL-administered mice; assay type: in vivo, mouse
# Description: GST-RANKL (426 nmol) was intraperitoneally administered 3 times to groups of 7-week-old female C57BL/6N mice (5 to 6 individuals each) every 24 hours. An osteoporosis therapeutic agent (risedronate) was subcutaneously administered at 0.01 mg/kg every 24 hours from 3 days before GST-RANKL administration. Administration of the agent was continued to the end of the experimentation every 24 hours. The serum, femur, and tibia were collected from each mouse 1.5 hours after the 3rd administration of GST-RANKL. Bone resorption parameters (calcium, CTx, and TRAP-5b) and osteogenesis parameters (osteocalcin and ALP) in the serum were measured. The femur bone density was determined with the use of pQCT and micro CT. Measurement values were compared with those for a control group by the Dunnett method for testing.
# [5] = system: GST-RANKL-administered 7-week-old female C57BL/6 mice; experiment: Drug evaluation with bisphosphonate (risedronate) in GST-RANKL mice; assay type: in vivo, mouse
# Description: Risedronate was separately administered via a subcutaneous route to groups of 7-week-old female C57BL/6 mice at doses of 3, 10, and 30 μg/kg every 24 hours from the day before GST-RANKL administration to the end of the experimentation. The femur and serum were collected from each mouse 1.5 hours after the 3rd administration of GST-RANKL. Measurement of TRAP-5b, calcium (Ca), and alkaline phosphatase (ALP) was carried out. Each femur was subjected to bone density measurement and image analysis with the use of pQCT.
# [6] = system: 7-week-old female C57BL/6N mice; experiment: Production of osteopenia model mice with soluble RANKL; assay type: in vivo, mouse
# Description: Soluble RANKL (produced by Peprotech) was intraperitoneally administered 3 times to groups of 7-week-old female C57BL/6N mice (10 individuals each) at doses of 57 and 426 nmol every 24 hours. The serum and femur were collected from each mouse 1.5 hours after the 3rd administration. Bone resorption markers and osteogenesis markers in the serum were measured. The bone density was measured with the use of pQCT at points 0.6, 0.8, and 1.0 mm from the distal growth plate on the proximal side of the femur.
# [7] = raloxifene 1 or 10 mg/kg p.o. 14 days
# [8] = combination of GST-RANKL and risedronate 0.01 mg/kg
molecule,measurement,setting,value
C/C(O)=C(\C#N)C(=O)Nc1cc(Br)ccc1Br [LFM-A13],bone mass decrease caused by GST-RANKL (micro CT),[1]; LFM-A13 20 mg/kg 1 hour before GST-RANKL 20 μg,suppressed
same,decrease in the trabecular number (Tb.N) resulting from GST-RANKL,"[1]; LFM-A13 20 mg/kg, p<0.01",significantly suppressed
same,decrease in unit bone mass (BV/TV) caused by GST-RANKL,"[1]; LFM-A13 20 mg/kg, p<0.01",significantly suppressed
same,increase in the eroded surface area (ES/BS) resulting from GST-RANKL,"[1]; LFM-A13 20 mg/kg, p<0.01",significantly suppressed
same,increase in the osteoclast number (N.Oc/B.Pm) resulting from GST-RANKL,"[1]; LFM-A13 20 mg/kg, p<0.01",significantly suppressed
same,decrease in the trabecular width (Tb.Th) resulting from GST-RANKL,"[1]; LFM-A13 20 mg/kg, p<0.05",significantly suppressed
same,increase in the serum Ca concentration resulting from GST-RANKL,"[1]; LFM-A13 20 mg/kg, p<0.05",significantly suppressed
NCCCC(O)(P(=O)(O)O)P(=O)(O)O [alendronate],serum Ca concentration vs RANKL administration,"[2]; 300 μg/kg s.c., p<0.05",significantly decreased
same,increase in the TRAP-5b concentration,"[2]; 300 μg/kg, p<0.01",significantly suppressed
same,dose at which the effects were exhibited,[2],0.3 mg/kg
CC(O)(P(=O)(O)O)P(=O)(O)O [etidronate],dose at which the effects were exhibited,[2],30 mg/kg
O=C(c1ccc(OCCN2CCCCC2)cc1)c1c(-c2ccc(O)cc2)sc2cc(O)ccc12 [raloxifene],cancellous bone density (pQCT),[3]; among the all groups,no significant differences
same,cortical bone mineral content increase in GST-RANKL+OVX group,"[3]; raloxifene 1 mg/kg, 0.8 mm",93%
same,cortical bone thickness increase in GST-RANKL+OVX group,"[3]; raloxifene 1 mg/kg, 0.8 mm",101%
same,cortical bone mineral content increase in GST-RANKL+OVX group,"[3]; raloxifene 1 mg/kg, 1.0 mm",136%
same,cortical bone thickness increase in GST-RANKL+OVX group,"[3]; raloxifene 1 mg/kg, 1.0 mm",137%
same,total bone density increase in GST-RANKL+OVX group,"[3]; raloxifene 1 mg/kg, 1.0 mm",10%
same,serum ALP concentration,"[3]; raloxifene 1 mg/kg, p<0.05",significantly decreased
same,cortical bone mineral content increase in GST-RANKL+OVX group,"[3]; raloxifene 10 mg/kg, 0.6 mm",87%
same,cortical bone thickness increase in GST-RANKL+OVX group,"[3]; raloxifene 10 mg/kg, 0.6 mm",92%
same,total bone density increase in GST-RANKL+OVX group,"[3]; raloxifene 10 mg/kg, 0.6 mm",10%
same,cortical bone mineral content increase in GST-RANKL+OVX group,"[3]; raloxifene 10 mg/kg, 0.8 mm",118%
same,cortical bone thickness increase in GST-RANKL+OVX group,"[3]; raloxifene 10 mg/kg, 0.8 mm",123%
same,total bone density increase in GST-RANKL+OVX group,"[3]; raloxifene 10 mg/kg, 0.8 mm",11%
same,cortical bone mineral content increase in GST-RANKL+OVX group,"[3]; raloxifene 10 mg/kg, 1.0 mm",137%
same,cortical bone thickness increase in GST-RANKL+OVX group,"[3]; raloxifene 10 mg/kg, 1.0 mm",133%
same,total bone density increase in GST-RANKL+OVX group,"[3]; raloxifene 10 mg/kg, 1.0 mm",11%
same,serum ALP concentration,"[3]; raloxifene 10 mg/kg, p<0.01",significantly decreased
same,serum Ca concentration,[3]; [7],no significant changes
same,serum TRAP-5b concentration,[3]; [7],no significant changes
O=P(O)(O)C(O)(Cc1cccnc1)P(=O)(O)O [risedronate],serum CTx concentration decrease vs control group,[4]; combination of GST-RANKL 426 nmol and risedronate 0.01 mg/kg s.c.,approximately 30%
same,serum TRAP-5b concentration decrease vs control group,[4]; combination of GST-RANKL 426 nmol and risedronate 0.01 mg/kg s.c. every 24 hours,approximately 30%
same,femur bone density vs control,[4]; [8],comparable to that for the control group
same,serum alkaline phosphatase concentration vs control,[4]; [8],did not change
same,serum osteocalcin concentration vs control,[4]; [8],did not change
same,serum TRAP-5b decrease vs RANKL alone,[5]; risedronate 3 μg/kg s.c. every 24 hours,approximately 30%
same,bone density decrease suppressed to,"[5]; risedronate 3 μg/kg, 0.6 mm",12%
same,bone density decrease suppressed to,"[5]; risedronate 3 μg/kg, 0.8 mm",18%
same,bone density decrease suppressed to,"[5]; risedronate 3 μg/kg, 1.0 mm",24%
same,serum TRAP-5b decrease vs RANKL alone,[5]; risedronate 10 μg/kg s.c.,~50%
same,bone density decrease suppressed to,"[5]; risedronate 10 μg/kg, 0.6 mm",13%
same,bone density decrease suppressed to,"[5]; risedronate 10 μg/kg, 0.8 mm",28%
same,bone density decrease suppressed to,"[5]; risedronate 10 μg/kg, 1.0 mm",30%
same,serum ALP concentration vs RANKL alone,[5]; risedronate 30 μg/kg,significantly decreased
same,serum TRAP-5b decrease vs RANKL alone,[5]; risedronate 30 μg/kg s.c.,~70%
same,bone density decrease suppressed to,"[5]; risedronate 30 μg/kg, 0.6 mm",10%
same,bone density decrease suppressed to,"[5]; risedronate 30 μg/kg, 0.8 mm",18%
same,bone density decrease suppressed to,"[5]; risedronate 30 μg/kg, 1.0 mm",20%
same,serum Ca concentration vs RANKL administration,"[2]; 1 μg/kg s.c., p<0.01",significantly decreased
same,increase in the TRAP-5b concentration,"[2]; 1 μg/kg, p<0.05",significantly suppressed
same,increase in the TRAP-5b concentration,"[2]; 10 μg/kg, p<0.01",significantly suppressed
same,serum Ca concentration vs RANKL administration,"[2]; 100 μg/kg s.c., p<0.01",significantly decreased
same,bone density decrease suppressed to,"[2]; 100 μg/kg, 0.6-mm point",1%
same,increase in the TRAP-5b concentration,"[2]; 100 μg/kg, p<0.01",significantly suppressed
same,dose at which the effects were exhibited,[2],0.1 mg/kg
B1,femur bone density decrease,[6]; 426 nmol,approximately 20%
same,"serum CTx concentration, fold as high",[6]; 426 nmol,~1.5 fold
same,serum alkaline phosphatase concentration,[6]; 426 nmol,did not vary
same,serum osteocalcin concentration,[6]; 426 nmol,did not vary
same,"serum calcium concentration, fold as high",[6]; 426 nmol high dose i.p. 3 times,approximately 1.4 fold
same,"serum TRAP-5b concentration, fold as high","[6]; 426 nmol, no significant difference",approximately 1.25 fold
